For assay [1], the system named is tubulin. Description: Tubulin polymerization assay. It is filed as biochemical, bovine. On the procedure: Electrophoretically homogeneous bovine brain tubulin was purified as described in E. Hamel, et al. Biochemistry 23:4173 (1984).
The tubulin polymerization assay was performed as described in S. Kuo, et al. J. Med. Chem. 36:1146 (1993); L. Li, et al. J. Med. Chem. 37:1126 (1994); and L. Li J. Med. Chem. 37:3400 (1994). In brief, tubulin at 1.2 mg/ml (12 μM) was preincubated for 15 min at 26° C. in a 0.24-ml volume of 0.8 M monosodium glutamate (pH 6.6 with NaOH in a 2 M stock solution) with varying drug concentrations. The drug stock solutions were in DMSO, and the final solvent concentration was 4 % (v/v). All concentrations are in terms of the final reaction volume (0.25 ml). The reaction mixtures were chilled on ice, and 10 μl of 10 mM GTP was added to each reaction mixture. Samples were transferred to cuvettes held at 0° C. by an electronic temperature controller in Gilford spectrophotometers. Baselines were established at 350 nm, and polymerization initiated by a temperature jump to 26° C. The jump took about 50 sec to complete. After 20 min, turbidity readings were recorded, and the temperature controller was set to 0C. When depolymerization was complete, turbidity readings were again recorded. […] IC50 values were obtained graphically from inhibition of polymerization by different drug concentrations.
Electrophoretically, homogeneous bovine brain tubulin was purified as described in Example 6.
The tubulin polymerization assay was performed as described in Example 6.

For assay [2], the system named is NCI's 60 human tumor cell line. Description: NCI 60 human tumor cell line in vitro screen (average / whole panel). The format is cell-based. Particulars: calculated from all cell lines tested, molar concentrations, read-out: average log GI50 (converted).
Assay [3] has as its system HL-60(TB) leukemia cell line. In words: cells. As to conditions: Homo sapiens; HL-60(TB); read-out: Cytotoxicity log GI50 (converted). It is filed as cell-based.
Assay [4] deals with NCI-H460 non-small cell lung cancer cell line. Description: NCI in vitro screen, non-small cell lung cancer NCI-H460. It is filed as cell-based. As to conditions: Homo sapiens, read-out: Cytotoxicity log GI50 (converted).
Assay [5] relates to HCT-116 colon cancer cell line. Description: NCI in vitro screen, colon cancer HCT-116. As to conditions: Homo sapiens; HCT-1.16 (head); HCT-116 (footnote); read-out: Cytotoxicity log GI50 (converted). The format is cell-based.
Assay [6] concerns SF-295 CNS cancer cell line. Description: NCI in vitro screen, CNS cancer SF-295. It is filed as cell-based. Particulars: Homo sapiens, read-out: Cytotoxicity log GI50 (converted).
In assay [7] the test system is U-251 CNS cancer cell line. Description: NCI in vitro screen, CNS cancer U-251. As to conditions: Homo sapiens, read-out: Cytotoxicity log GI50 (converted). The format is cell-based.
Assay [8] concerns SK-MEL-5 melanoma cell line. In words: NCI in vitro screen, melanoma SK-MEL-5. The format is cell-based. As to conditions: Homo sapiens, read-out: Cytotoxicity log GI50 (converted). From the text:
(§1) Compounds 41-51 and 53-68 were submitted to NCI and assayed in the NCI's in vitro disease-oriented antitumor screen, which involves determination of a test compound's effects on the growth of approximately 60 human tumor cell lines. See, M. R. Boyd, et al. In Cancer: Principles and Practice of Oncology Updates; De Vita, V. T., Hellman, S., Rosenberg, S. A., Eds; J. B. Lippincoft: Philadelphia, pp 1-12 (1989); and A. Monks, et al. J. Natl. Cancer Inst. 83:757 (1991). These lines include leukemia, non-small cell lung, colon, central nervous system (CNS), melanoma, ovarian, renal, prostate, and breast cancers.
(§2) Compounds 29'-51' were submitted to NCI and assayed in the NCI's in vitro disease-oriented antitumor screen, using the techniques described in Example 5. This assay involves determinations of a test agent's effect on growth parameters against a panel of approximately 60 human tumor cell lines, derived largely from solid tumors, including non-small cell lung, colon, central nervous system, renal, ovarian, prostate, and breast cancers, plus a few leukemia cell lines. The cytotoxic effects of each compound are obtained as GI50 or […] values, which represent the molar drug concentrations required to cause half growth inhibition and total growth inhibition, respectively. The results are expressed for each cell line as average log GI50 values in Table 4, as log GI50 values in Table 5, and as log TGI values and average log TGI values in Table 6.

Assay [9] deals with OVCAR-3 ovarian cancer cell line. In words: NCI in vitro screen, ovarian cancer OVCAR-3. As to conditions: Homo sapiens, read-out: Cytotoxicity log GI50 (converted). The format is cell-based.
Assay [10] has as its system 786-0 renal cancer cell line. Description: NCI in vitro screen, renal cancer 786-0. It is filed as cell-based. As to conditions: Homo sapiens, read-out: Cytotoxicity log GI50 (converted).
Source text: as §1, §2

The test system of assay [11] is PC-3 prostate cancer cell line. In words: NCI in vitro screen, prostate cancer PC-3. The format is cell-based. As to conditions: Homo sapiens, read-out: Cytotoxicity log GI50 (converted).
Source text: as §1, §2

For assay [12], the system named is MDA-MB-435 breast cancer cell line. Description: NCI in vitro screen, breast cancer MDA-MB-435. It is filed as cell-based. As to conditions: Homo sapiens, read-out: Cytotoxicity log GI50 (converted).
Assay [13] has as its system MDA-N breast cancer cell line. In words: NCI in vitro screen, breast cancer MDA-N. It is filed as cell-based. Particulars: Homo sapiens, read-out: Cytotoxicity log GI50 (converted).
Source text: as §1, §2

[14] abbreviates: Tables 1 and 4, read-out: ITP HC50 ± SD (Inhibition of Tubulin Polymerization).
Where [15] appears, read: read-out: IC50, inhibition of tubulin polymerization.

SMILES strings stand for the structures. Read-outs that look alike come from different tables or passages of the source.

Regarding `Cc1ccc(C2=Nc3nc(C)ccc3C(=O)C2)cc1` [Compound 69, 2-(4'-Methylphenyl)-7-methyl-1,8-naphthyridin-4-one], the IC50 in [1] (setting [14]) worked out at 4.9 ± 0.2 µM.

As usually defined, the GI50 is the concentration giving 50% growth inhibition. For the compound `Cc1ccc2c(n1)N=C(c1ccc(Cl)cc1)CC2=O` [Compound 65, 2-(4'-Chlorophenyl)-7-methyl-1,8-naphthyridin-4-one], the results for the IC50 in assay [1] (setting [14]) and in assay [1] (setting [15]) were 11 ± 0.7 µM and 11 to 32 µM, respectively. The GI50 is 4.9 µM in assay [2]; 2.95 µM in assay [3]; 4.47 µM in [4]; 3.31 µM in assay [5]; 4.57 µM in [6]; 4.79 µM in assay [7]. Besides, the GI50 in assay [8] was 4.37 µM; in [9], 2.57 µM; in assay [10], 6.31 µM; in assay [11], 1.66 µM; in assay [12], 0.912 µM; in assay [13], 1 µM.

Take `O=C1CC(c2ccc(Cl)cc2)=Nc2ncccc21` [Compound 62, 2-(4'-Chlorophenyl)-1,8-naphthyridin-4-one]: the IC50 was 22 ± 0.1 µM in assay [1] (setting [14]) and 11 to 32 µM in [1] (setting [15]). The GI50 was 38.9 µM in [2]; 16.6 µM in [3]; 38 µM in assay [4]; 32.4 µM in [5]; 40.7 µM in [6]; 39.8 µM in assay [7]. In addition, the GI50 in assay [8] was 28.8 µM; in assay [9], 23.4 µM; in [10] it was 33.9 µM; in [11], 47.9 µM; in assay [12], 5.89 µM; in assay [13], 8.32 µM.

As for `Cc1ccnc2c1C(=O)CC(c1ccc(F)cc1)=N2` [Compound 57, 2-(4'-Fluorophenyl)-5-methyl-1,8-naphthyridin-4-one], the IC50 in [1] (setting [14]) is 18 ± 2 µM; in assay [1] (setting [15]), 11 to 32 µM. Besides, the GI50 in [2] was 38 µM; in [3], 4.79 µM; in [4], 32.4 µM; in assay [5], 16.2 µM; in [6], 79.4 µM; in assay [7], 36.3 µM. Moreover, the GI50 in [8] is 16.2 µM; in [9] it was 56.2 µM; in assay [10], 33.9 µM; in [11] it was 51.3 µM; in assay [12], 2.88 µM; in assay [13], 3.55 µM.

For the compound `COc1ccc(C2=Nc3nc(C)ccc3C(=O)C2)cc1` [Compound 54, 2-(4'-Methoxyphenyl)-7-methyl-1,8-naphthyridin-4-one], in assay [1] (setting [14]), the IC50 was > 40 µM. In addition, the GI50 is 91.2 µM in [2]; > 100 µM in [3]; > 100 µM in assay [4]; > 100 µM in assay [5]; 89.1 µM in assay [6]; > 100 µM in assay [7]. Besides, the GI50 is 47.9 µM in assay [8]; > 100 µM in assay [9]; > 100 µM in assay [10]; > 100 µM in assay [11]; 42.7 µM in assay [12]; 55 µM in [13].

In the case of `Cc1cc(C)c2c(n1)N=C(c1ccc(F)cc1)CC2=O` [Compound 60, 2-(4'-Fluorophenyl)-5,7-dimethyl-1,8-naphthyridin-4-one], the IC50 in assay [1] (setting [14]) and in assay [1] (setting [15]) was > 40 µM each time. Besides, the GI50 in [2] is 40.7 µM; in [3], 15.5 µM; in assay [4], 51.3 µM; in assay [5], 50.1 µM; in [6] it was 50.1 µM; in [7] it was 95.5 µM. Besides, the GI50 was 26.3 µM in [8]; 43.7 µM in assay [9]; 79.4 µM in assay [10]; 30.2 µM in assay [11]; 18.6 µM in assay [12]; 25.1 µM in assay [13].

With `O=C1CC(c2ccc(F)cc2)=Nc2ncccc21` [Compound 56, 2-(4'-Fluorophenyl)-1,8-naphthyridin-4-one], the IC50 in assay [1] (setting [14]) was > 40 µM. Further, the GI50 is 45.7 µM in assay [2]; 12.9 µM in assay [3]; 34.7 µM in assay [4]; 42.7 µM in assay [5]; 50.1 µM in assay [6]; 47.9 µM in assay [7]. Also, the GI50 in assay [8] was 30.2 µM; in assay [9], 45.7 µM; in assay [10], 44.7 µM; in assay [11], 45.7 µM; in [12] it was 12 µM; in [13], 14.1 µM.

Turning to `COc1ccc(C2=Nc3nc(C)cc(C)c3C(=O)C2)cc1` [Compound 55, 2-(4'-Methoxyphenyl)-5,7-dimethyl-1,8-naphthyridin-4-one], the IC50 in assay [1] (setting [14]) is > 40 µM. Moreover, the GI50 is 33.1 µM in assay [2]; 15.8 µM in assay [3]; 40.7 µM in [4]; 36.3 µM in assay [5]; 42.7 µM in assay [6]; 91.2 µM in [7]. The GI50 in [8] is 17.8 µM; in [9], 32.4 µM; in assay [10], 58.9 µM; in [11] it was 24 µM; in assay [12], 28.8 µM; in [13] it was 33.1 µM.

Regarding `Cc1ccc(C2=Nc3nccc(C)c3C(=O)C2)cc1` [Compound 67, 2-(4'-Methylphenyl)-5-methyl-1,8-naphthyridin-4-one], the IC50 in assay [1] (setting [14]) is 2.9 ± 0.7 µM.

In the case of `Cc1ccc(C2=Nc3nc(C)cc(C)c3C(=O)C2)cc1` [Compound 70, 2-(4'-Methylphenyl)-5,7-dimethyl-1,8-naphthyridin-4-one], the IC50 in assay [1] (setting [14]) came to 9.8 ± 2 µM.

Consider `O=c1cc(-c2cccc(Cl)c2)[nH]c2ncccc12` [32'], for which the GI50 in [2] was 0.229 µM; in assay [3] it was 0.0105 µM; in [4] it was 0.0871 µM; in assay [5] it was 0.0288 µM; in assay [6], 0.0631 µM; in assay [7] it was 0.145 µM. Besides, the GI50 is 0.0525 µM in [8]; 0.0457 µM in [9]; 0.0562 µM in assay [10]; 0.0224 µM in assay [11]; < 0.01 µM in assay [12]; 0.0174 µM in assay [13].

Consider `Cc1ccc(C2=Nc3ncc(C)cc3C(=O)C2)cc1` [Compound 68, 2-(4'-Methylphenyl)-6-methyl-1,8-naphthyridin-4-one], for which, in assay [1] (setting [14]), the IC50 was determined as 2.4 ± 0.8 µM.

On to `Cc1cc(C)c2c(=O)cc(-c3cccc(F)c3)[nH]c2n1` [31'], for which the GI50 was 0.0851 µM in assay [2]; 0.0372 µM in assay [3]; 0.0537 µM in assay [4]; < 0.01 µM in [5]; 0.0331 µM in assay [6]; 0.0646 µM in assay [7]. Further, the GI50 in assay [8] was 0.0372 µM; in [9] it was 0.0182 µM; in [10], 0.0355 µM; in assay [11], 0.0617 µM; in assay [12], < 0.01 µM; in assay [13], 0.0129 µM.

Regarding `Cc1ccc2c(=O)cc(-c3cccc(F)c3)[nH]c2n1` [30'], the GI50 is 0.0427 µM in assay [2]; 0.0224 µM in [3]; 0.0331 µM in assay [4]; 0.0282 µM in assay [5]; 0.0288 µM in assay [6]; 0.038 µM in assay [7]. For the same compound, the GI50 in assay [8] is 0.0224 µM; in assay [9], 0.0195 µM; in [10], 0.0457 µM; in [11], 0.0347 µM; in [12], 0.0123 µM; in assay [13], 0.0145 µM.

Values taken from patent US6229016A, “Method for treating tumors using 2-aryl-naphthyridin-4-ones” (priority 2000, dated 2001).
